Test in all cases: growth of human tumour cells (NCI), 48 h
For experiment [1], the system named is CAKI-1 renal.
The subject of experiment [2] is CCRF-CEM leukemia.
Experiment [3] concerns HCT-15 colon.
For experiment [4], the system named is HOP-92 NSCLC.
In experiment [5] the test system is K-562 leukemia.
For experiment [6], the system named is NCI-H460 lung.
Experiment [7] has as its system OVCAR-5 ovarian.
Experiment [8] has as its system SF-295 CNS.
The test system of experiment [9] is SK-MEL-5 melanoma.
For experiment [10], the system named is U251 CNS.

Several values for one entry are separate records, joined by “and”; a condition that tells them apart may be missing. Identical values can stand only once.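 Assay format: 96-well plates, 48-hour exposure. Abbreviation: GI50, concentration required for 50% inhibition of growth. TGI marks complete inhibition of growth.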 Some results are limits rather than exact numbers.

Turning to `COc1cc2ccccc2oc1=O`, the TGI in [1], in experiment [2], in experiment [3], in experiment [4], in experiment [5] and in [6] was over 100 µM throughout. In addition, the TGI in experiment [7], in experiment [8], in experiment [9] and in experiment [10] was over 100 µM in each case.
Consider `CC(=O)NNc1nc(C)c(C(=O)/C=C/c2ccccc2Cl)s1`, for which the TGI in [1], in experiment [2], in experiment [3], in experiment [4], in [5] and in experiment [6] was over 100 µM in each case. Besides, the TGI in [7], in [8], in experiment [9] and in experiment [10] was over 100 µM throughout.
Take `COC1/C=C/C(C)C(C(C)C(OC)C(C)CCC(=O)C(C)C(C/C=C/N(C)C=O)OC)OC(=O)/C=C/C=C(\C)CC(OC)CC2=CC(=O)O[C@H](C2)C(C)C(OC)CC(OC)/C=C/C(C)C(OC)C1` (some centres not stated): the GI50 in experiment [1] was 0.00682 µM; in experiment [2] it was 0.0218 µM; in [3], 0.0142 µM; in experiment [4], 0.0161 µM; in experiment [5], 0.00105 µM; in experiment [6] it was 0.01 µM. Also, the GI50 is 0.119 µM in experiment [7], 0.0277 µM in [8], 0.113 µM in experiment [9] and 0.0122 µM in experiment [10]. Further, the TGI in [1] is 0.0308 µM and 0.0117 µM; in experiment [2] it was 0.0367 µM; in experiment [3], 0.27 µM and 0.0329 µM; in experiment [4], 0.0489 µM and 0.0313 µM; in [6], 0.118 µM and 0.097 µM; in experiment [7] it was 0.714 µM. For the same compound, the TGI in [8] is 0.159 µM and 0.0165 µM; in experiment [10], 0.0289 µM.
With `O=c1[nH]nc2ccccc2c1Cc1ccccc1`, the TGI in [1], in experiment [2], in experiment [3], in [4], in experiment [5] and in [6] was over 100 µM each time. Further, the TGI in experiment [7], in experiment [8], in [9] and in [10] was over 100 µM in each case.
Consider `N.N.N.N.N.[Cl-].[Co+3].c1ccc(-c2nn[n-]n2)cc1`, for which the GI50 in [1], in experiment [2], in [3], in experiment [4], in experiment [5] and in experiment [6] was over 100 µM each time. Besides, the GI50 in experiment [7], in experiment [8], in experiment [9] and in [10] was over 100 µM each time. The TGI in [1], in experiment [2], in experiment [3], in experiment [4], in experiment [5] and in experiment [6] was over 100 µM in each case. Further, the TGI in experiment [7], in experiment [8], in [9] and in experiment [10] was over 100 µM throughout.
For `O=c1ccn(C2CC(O)C(CO)O2)c(=O)[nH]1` (configuration not stated), the GI50 in experiment [1] is over 5000 µM; in experiment [2], 95.8 µM and 110 µM; in experiment [3], over 5000 µM; in experiment [4], over 5000 µM; in [5] it was over 5000 µM; in experiment [6], over 5000 µM. The GI50 in experiment [7], in experiment [8], in [9] and in experiment [10] was over 5000 µM throughout. Further, the TGI is over 5000 µM in experiment [1]; 838 µM in [2]; over 5000 µM in experiment [3]; over 5000 µM in experiment [4]; over 5000 µM in experiment [5]; over 5000 µM in [6]. Also, the TGI in experiment [7], in experiment [8], in experiment [9] and in experiment [10] was over 5000 µM throughout.
As to `CC(=O)OC[C@]12CC[C@@H](C(=O)CBr)[C@@H]1[C@H]1CC[C@@H]3[C@@]4(C)CCCNC(C)(C)[C@@H]4CC[C@@]3(C)[C@]1(C)CC2`, the GI50 in experiment [1] was 1.81 µM; in experiment [2], 1.06 µM; in [3], 1.65 µM; in experiment [4], 1.6 µM; in experiment [5], 2.61 µM; in experiment [6] it was 7.66 µM. Further, the GI50 was 13.5 µM in [7], 14.6 µM in [8], 4.55 µM in [9] and 12.7 µM in experiment [10]. Besides, the TGI was found to be 4.13 µM in experiment [1]; 3.29 µM in experiment [2]; 3.52 µM in [3]; 3.7 µM in experiment [4]; 8.33 µM in experiment [5]; 21.8 µM in experiment [6]. Moreover, the TGI in experiment [7] was 26.6 µM; in experiment [8] it was 28.2 µM; in experiment [9] it was 15.8 µM; in experiment [10], 25.4 µM.
As to `O=C(CC(=O)C1=CNc2ccccc2S1)C(=O)Nc1ccc(Cl)cc1`, the TGI in experiment [1], in [2], in experiment [3], in experiment [4], in [5] and in experiment [6] was over 50 µM throughout. For the same compound, the TGI in [7], in experiment [8], in experiment [9] and in experiment [10] was over 50 µM in each case.
As to `O=[N+]([O-])c1ccc2c(c1)Cc1cc(N=Cc3ccc4c(c3)OCO4)ccc1-2`, the TGI in experiment [1], in experiment [2], in experiment [3], in experiment [4], in experiment [5] and in experiment [6] was over 100 µM throughout. Moreover, the TGI in [7], in experiment [8], in experiment [9] and in experiment [10] was over 100 µM throughout.
In the case of `C=C1/C(=C\C=C2/CCC[C@]3(C)[C@@H]([C@H](C)CCCC(C)(C)O)CC[C@@H]23)C[C@@H](OC(=O)CBr)C[C@@H]1O`, the GI50 was 3.19 µM in experiment [1]; 0.0491 µM in experiment [2]; 1.48 µM in [3]; 0.138 µM in experiment [4]; 2.75 µM in experiment [5]; 12 µM in experiment [6]. Also, the GI50 in [7] was 1.55 µM; in experiment [8], 6.81 µM; in experiment [9], 2.46 µM; in [10], 4.51 µM. In addition, the TGI in [1] was 15.8 µM; in experiment [2] it was 0.307 µM; in experiment [3], 3.31 µM; in experiment [4], 0.445 µM; in experiment [5] it was over 33.9 µM; in [6] it was 28 µM. The TGI was 19.3 µM in [7], 20.3 µM in experiment [8], 6.41 µM in [9] and 18.8 µM in experiment [10].
On to `COc1ccc(C2CC(C)(O)Oc3cc4c(cc32)OCO4)cc1` (configuration not stated), for which the TGI in [1] was over 100 µM; in [2] it was over 82.8 µM; in experiment [3], over 100 µM; in [4], 69.5 µM; in experiment [5], 98.7 µM; in experiment [6], over 100 µM. Also, the TGI is over 100 µM in experiment [7], over 100 µM in [8], 69 µM in experiment [9] and over 100 µM in [10].
Take `COc1cccc(-n2nc(C)c3c(N/N=C(\C)c4ccncc4)ncnc32)c1`: the GI50 was over 25 µM in experiment [1]; over 25 µM in experiment [2]; over 25 µM in [3]; 1.86 µM in experiment [4]; over 25 µM in [5]; over 25 µM in [6]. The GI50 in [7] was over 25 µM; in [8], over 25 µM; in experiment [9], 3.02 µM; in experiment [10], over 22.2 µM. For the same compound, the TGI was over 25 µM in [1]; over 25 µM in experiment [2]; over 25 µM in [3]; 16.9 µM in [4]; over 25 µM in experiment [5]; over 25 µM in experiment [6]. The TGI in experiment [7], in experiment [8], in experiment [9] and in experiment [10] was over 25 µM in each case.
Regarding `CCN(Cc1ccc(F)cc1)c1ccc(CO)c(F)c1`, the GI50 in experiment [1] was 3.74 µM; in [2], 21.5 µM; in [3], 10.4 µM; in experiment [4] it was 9.52 µM; in experiment [5], 7.46 µM; in experiment [6], 3.93 µM. The GI50 in experiment [7] is 1.26 µM; in experiment [8], 5.7 µM; in [9], 10.9 µM; in experiment [10] it was 12.5 µM. Besides, the TGI is 36.4 µM in experiment [1]; over 74.6 µM in [2]; over 88.1 µM in experiment [3]; 37.9 µM in experiment [4]; over 73.5 µM in [5]; 20.4 µM in experiment [6]. The TGI was 4.13 µM in experiment [7], 31.7 µM in experiment [8], 24.2 µM in experiment [9] and over 63 µM in [10].
As to `COc1cc2c3c(n(CCCCN)c(=O)c2cc1OC)-c1cc2c(cc1C3=O)OCO2`, the GI50 in experiment [1] is 0.656 µM; in experiment [2], 0.0913 µM; in experiment [3] it was 0.805 µM; in experiment [4], 0.487 µM; in [5], 0.431 µM; in experiment [6] it was 0.114 µM. Further, the GI50 is 4.97 µM in [7], 0.274 µM in experiment [8], 1.6 µM in [9] and 0.407 µM in [10]. The TGI in experiment [1] came to 4.12 µM; in [2], 3.75 µM; in experiment [3], 9.81 µM; in [4], 2.43 µM; in [5], 2.17 µM; in experiment [6] it was 2.07 µM. Also, the TGI in experiment [7] amounted to 12.3 µM; in [8], 2.81 µM; in [9], 6.4 µM; in [10] it was 2.86 µM.
As to `COc1ccc(/C=C/C(=O)c2ccc(O)c(CN3CCN(c4cc5c(cc4F)c(=O)c(C(=O)O)cn5C4CC4)CC3)c2)cc1`, the GI50 is 2.35 µM in experiment [1]; 0.805 µM in experiment [2]; 2.22 µM in experiment [3]; 1.23 µM in [4]; 0.463 µM in [5]; 6.08 µM in experiment [6]. The GI50 is 4.61 µM in experiment [7], 2.1 µM in [8], 1.57 µM in experiment [9] and 0.387 µM in experiment [10]. Moreover, the TGI was over 100 µM in experiment [1]; over 100 µM in experiment [2]; over 100 µM in experiment [3]; 6.21 µM in [4]; over 100 µM in experiment [5]; over 100 µM in [6]. The TGI in experiment [7], in experiment [8], in experiment [9] and in experiment [10] was over 100 µM throughout.
On to `Cc1oc2c(C)c3oc(=O)cc(C)c3cc2c1CN1C(=O)C2OCCOCCOCCOCCOCCO[C@H]2C1=O` (some centres not stated), for which the TGI in experiment [1], in [2], in experiment [3], in [4], in experiment [5] and in experiment [6] was over 100 µM each time. The TGI in experiment [7], in experiment [8], in experiment [9] and in [10] was over 100 µM in each case.
Consider `COc1cc(NC(C)CCCN)c2ncccc2c1` (configuration not stated), for which the TGI in experiment [1], in [2], in [3], in experiment [4], in experiment [5] and in experiment [6] was over 100 µM each time. Besides, the TGI is over 100 µM in [7]; over 100 µM in [8]; 32.3 µM and 57.3 µM in experiment [9]; over 100 µM in experiment [10]. Also, the GI50 in experiment [3] was 41.9 µM and 98.4 µM; in experiment [4], 27.2 µM and 62.6 µM; in experiment [6], 32.8 µM and > 94.8 µM; in experiment [10] it was 39 µM and 86.1 µM.
With `CCn1cnc(C[C@H](NC(=O)[C@@H](NC(=O)Nc2cc(C(F)(F)F)cc(C(F)(F)F)c2)C(C)C)C(=O)OC)c1`, the GI50 in [1] is over 10 µM; in [2], 3.38 µM; in [3] it was over 10 µM; in [4], 6.88 µM; in [5], 6.38 µM; in experiment [6] it was 2.13 µM. For the same compound, the GI50 in experiment [7] was 4.98 µM; in [8], over 10 µM; in [9], 4.31 µM; in experiment [10] it was 1.98 µM. Besides, the TGI in [1] was over 10 µM; in [2], over 10 µM; in experiment [3], over 10 µM; in [4], over 10 µM; in experiment [5], over 10 µM; in experiment [6], 4.43 µM. The TGI in experiment [7] was over 10 µM; in experiment [8], over 10 µM; in experiment [9] it was over 10 µM; in experiment [10], 3.96 µM.

The values above are taken from PubChem BioAssay (NCI).
